Data as given in patent US5352705A, “Inhibitors of farnesyl protein transferase” (Merck & Co., Inc., priority 1992, dated 1994).

Key:
Ras farnesylation = conditions: cited from earlier work
[1] = molecular target: T1, Farnesyl-protein transferase (Ftase) from bovine brain (Bos taurus, UniProt P29702+P49355); assay: In vitro inhibition of ras farnesyl transferase; type: biochemical; conditions: Ras-CVLS 3.5 μM, 0.25 μM [3H]FPP, partially purified bovine brain enzyme; read-out: IC50 (concentration of compound which gives 50% inhibition of FTase under the described assay conditions)
T1 construct: Farnesyl-protein transferase (Ftase) from bovine brain was chromatographed on DEAE-Sephacel; from tissue; host or cells: bovine brain, partially purified (DEAE-Sephacel, N-octyl agarose, mono Q HPLC)
Procedure: In vitro inhibition of ras farnesyl transferase
Farnesyl-protein transferase (Ftase) from bovine brain was chromatographed on DEAE-Sephacel (Pharmacia, 0-0.8 M NaC1 gradient elution), N-octyl agarose (Sigma, 0-0.6 M Nacl gradient elution), and a mono Q HPLC column (Pharmacia, 0-0.3 M NaC1 gradient). Ras-CVLS at 3.5 μM, 0.25 μM [3H]FPP, and the indicated compounds were incubated with this partially purified enzyme preparation. The Ftase data presented below is a measurement of the ability of the test compound to inhibit RAS farnesylation in vitro.
*(IC50 is the concentration of compound which gives 50% inhibition o
FTase under the described assay conditions)

Question: With `CC[C@H](C)C(=O)O[C@H]1C[C@@H](C)C=C2C=C[C@H](C)[C@H](CC[C@@H]3C[C@@H](O)CC(=O)O3)[C@H]21` [lovastatin] as the compound, how does the “Inhibition of Ras farnesylation in vivo” value (Ras farnesylation) read?
Answer: Its value is “Inhibition of Ras farnesylation in vivo has been demonstrated”.

Question: For `CC[C@H](C)[C@H](NC[C@@H](N)CS)C(=O)NCc1cccc(Cl)c1Cl` [N-[2(R)-Amino-3-mercaptopropyl]-L-isoleucine-2,3-dichlorobenzylamide], which IC50 [1] is on record?
Answer: Its IC50 is 25 nM.

Question: Which IC50 [1] does the source give for `CC[C@H](C)[C@H](NC[C@@H](N)CS)C(=O)NCCc1cccc(Cl)c1` [N-[2(R)-Amino-3-mercaptopropyl]-L-isoleucine-3-chlorophenethylamide] here?
Answer: Its IC50 is 63 nM.

Question: With `CC[C@H](C)C(=O)O[C@H]1CCC=C2C=C[C@H](C)[C@H](CC[C@@H]3C[C@@H](O)CC(=O)O3)[C@H]21` [compactin] as the compound, how does the “Inhibition of Ras farnesylation in vivo” value (Ras farnesylation) read?
Answer: The value was “Inhibition of Ras farnesylation in vivo has been demonstrated”.

Question: For `CC[C@H](C)[C@H](NC[C@@H](N)CS)C(=O)Nc1ccccc1` [N-[2(R)-amino-3-mercaptopropyl]-L-isoleucine-anilide], which IC50 [1] is on record?
Answer: The IC50 was 63 nM.

Question: For `CC[C@H](C)[C@H](NC[C@@H](N)CS)C(=O)Nc1cccc(C)c1C` [N-[2(R)-amino-3-mercaptopropyl]-L-isoleucine-2,3-dimethylphenylamide], which IC50 [1] is on record?
Answer: The IC50 was 35 nM.
